Assay: xn = mol fraction of the nth substance listed
Settings: 100 kPa, Liquid; for viscosity: Falling or rolling sphere viscometry; for mass density: Vibrating tube method

CCCCCCCCCCC [undecane] + CCCCCO
Settings	mass density [kg/m3]	viscosity [mPa·s]
283.15 K, x1 = 0.0999	808.13	4.269
283.15 K, x1 = 0.2	796.68	3.406
283.15 K, x1 = 0.3026	786.76	2.731
283.15 K, x1 = 0.4001	778.65	2.21
283.15 K, x1 = 0.5022	771.41	1.884
283.15 K, x1 = 0.5976	765.49	1.694
283.15 K, x1 = 0.6984	760.02	1.551
283.15 K, x1 = 0.801	755.27	1.452
283.15 K, x1 = 0.8822	751.87	1.413
283.15 K, x1 = 1	747.78	1.371
288.15 K, x1 = 0.0999	804.49	3.679
288.15 K, x1 = 0.2	792.98	2.958
288.15 K, x1 = 0.3026	783.04	2.39
288.15 K, x1 = 0.4001	774.92	1.945
288.15 K, x1 = 0.5022	767.66	1.689
288.15 K, x1 = 0.5976	761.74	1.535
288.15 K, x1 = 0.6984	756.3	1.419
288.15 K, x1 = 0.801	751.55	1.335
288.15 K, x1 = 0.8822	748.15	1.287
288.15 K, x1 = 1	744.06	1.249
293.15 K, x1 = 0.0999	800.81	3.187
293.15 K, x1 = 0.2	789.27	2.58
293.15 K, x1 = 0.3026	779.3	2.103
293.15 K, x1 = 0.4001	771.17	1.743
293.15 K, x1 = 0.5022	763.91	1.529
293.15 K, x1 = 0.5976	757.99	1.404
293.15 K, x1 = 0.6984	752.55	1.308
293.15 K, x1 = 0.801	747.81	1.236
293.15 K, x1 = 0.8822	744.41	1.176
293.15 K, x1 = 1	740.35	1.145
298.15 K, x1 = 0.0999	797.12	2.777
298.15 K, x1 = 0.2	785.54	2.26
298.15 K, x1 = 0.3026	775.54	1.862
298.15 K, x1 = 0.4001	767.4	1.571
298.15 K, x1 = 0.5022	760.13	1.395
298.15 K, x1 = 0.5976	754.22	1.295
298.15 K, x1 = 0.6984	748.78	1.214
298.15 K, x1 = 0.801	744.05	1.153
298.15 K, x1 = 0.8822	740.67	1.08
298.15 K, x1 = 1	736.64	1.062
303.15 K, x1 = 0.0999	793.4	2.428
303.15 K, x1 = 0.2	781.78	1.995
303.15 K, x1 = 0.3026	771.75	1.656
303.15 K, x1 = 0.4001	763.6	1.428
303.15 K, x1 = 0.5022	756.32	1.283
303.15 K, x1 = 0.5976	750.42	1.202
303.15 K, x1 = 0.6984	745	1.095
303.15 K, x1 = 0.801	740.28	1.026
303.15 K, x1 = 0.8822	736.92	0.999
303.15 K, x1 = 1	732.93	0.982
308.15 K, x1 = 0.0999	789.65	2.136
308.15 K, x1 = 0.2	777.98	1.768
308.15 K, x1 = 0.3026	767.93	1.481
308.15 K, x1 = 0.4001	759.77	1.29
308.15 K, x1 = 0.5022	752.5	1.153
308.15 K, x1 = 0.5976	746.6	1.062
308.15 K, x1 = 0.6984	741.2	0.998
308.15 K, x1 = 0.801	736.49	0.951
308.15 K, x1 = 0.8822	733.14	0.922
308.15 K, x1 = 1	729.23	0.91
313.15 K, x1 = 0.0999	785.86	1.887
313.15 K, x1 = 0.2	774.15	1.572
313.15 K, x1 = 0.3026	764.08	1.33
313.15 K, x1 = 0.4001	755.91	1.17
313.15 K, x1 = 0.5022	748.64	1.058
313.15 K, x1 = 0.5976	742.76	0.976
313.15 K, x1 = 0.6984	737.36	0.924
313.15 K, x1 = 0.801	732.67	0.881
313.15 K, x1 = 0.8822	729.34	0.859
313.15 K, x1 = 1	725.53	0.847
318.15 K, x1 = 0.0999	782.03	1.675
318.15 K, x1 = 0.2	770.28	1.409
318.15 K, x1 = 0.3026	760.19	1.2
318.15 K, x1 = 0.4001	752.02	1.065
318.15 K, x1 = 0.5022	744.75	0.972
318.15 K, x1 = 0.5976	738.88	0.902
318.15 K, x1 = 0.6984	733.51	0.856
318.15 K, x1 = 0.801	728.83	0.819
318.15 K, x1 = 0.8822	725.53	0.801
318.15 K, x1 = 1	721.82	0.79
323.15 K, x1 = 0.0999	778.15	1.468
323.15 K, x1 = 0.2	766.37	1.266
323.15 K, x1 = 0.3026	756.27	1.087
323.15 K, x1 = 0.4001	748.09	0.974
323.15 K, x1 = 0.5022	740.84	0.896
323.15 K, x1 = 0.5976	734.98	0.836
323.15 K, x1 = 0.6984	729.62	0.796
323.15 K, x1 = 0.801	724.97	0.764
323.15 K, x1 = 0.8822	721.69	0.748
323.15 K, x1 = 1	718.11	0.74
328.15 K, x1 = 0.0999	774.23	1.336
328.15 K, x1 = 0.2	762.42	1.142
328.15 K, x1 = 0.3026	752.3	0.989
328.15 K, x1 = 0.4001	744.13	0.895
328.15 K, x1 = 0.5022	736.88	0.828
328.15 K, x1 = 0.5976	731.04	0.776
328.15 K, x1 = 0.6984	725.7	0.742
328.15 K, x1 = 0.801	721.07	0.714
328.15 K, x1 = 0.8822	717.84	0.702
328.15 K, x1 = 1	714.39	0.692
333.15 K, x1 = 0.0999	770.26	1.2
333.15 K, x1 = 0.2	758.42	1.035
333.15 K, x1 = 0.3026	748.29	0.903
333.15 K, x1 = 0.4001	740.12	0.825
333.15 K, x1 = 0.5022	732.89	0.767
333.15 K, x1 = 0.5976	727.07	0.723
333.15 K, x1 = 0.6984	721.76	0.694
333.15 K, x1 = 0.801	717.15	0.67
333.15 K, x1 = 0.8822	713.96	0.659
333.15 K, x1 = 1	710.68	0.651
338.15 K, x1 = 0.0999	766.24	1.082
338.15 K, x1 = 0.2	754.37	0.94
338.15 K, x1 = 0.3026	744.23	0.827
338.15 K, x1 = 0.4001	736.07	0.763
338.15 K, x1 = 0.5022	728.86	0.714
338.15 K, x1 = 0.5976	723.06	0.675
338.15 K, x1 = 0.6984	717.77	0.652
338.15 K, x1 = 0.801	713.2	0.63
338.15 K, x1 = 0.8822	710.06	0.621
338.15 K, x1 = 1	706.95	0.615
343.15 K, x1 = 0.0999	762.15	0.979
343.15 K, x1 = 0.2	750.25	0.857
343.15 K, x1 = 0.3026	740.12	0.76
343.15 K, x1 = 0.4001	731.98	0.708
343.15 K, x1 = 0.5022	724.77	0.666
343.15 K, x1 = 0.5976	719	0.633
343.15 K, x1 = 0.6984	713.75	0.613
343.15 K, x1 = 0.801	709.22	0.594
343.15 K, x1 = 0.8822	706.13	0.587
343.15 K, x1 = 1	703.22	0.58
348.15 K, x1 = 0.0999	758.01	0.889
348.15 K, x1 = 0.2	746.09	0.784
348.15 K, x1 = 0.3026	735.95	0.701
348.15 K, x1 = 0.4001	727.83	0.659
348.15 K, x1 = 0.5022	720.65	0.624
348.15 K, x1 = 0.5976	714.91	0.595
348.15 K, x1 = 0.6984	709.7	0.578
348.15 K, x1 = 0.801	705.21	0.561
348.15 K, x1 = 0.8822	702.19	0.556
348.15 K, x1 = 1	699.47	0.549
353.15 K, x1 = 0.0999	753.8	0.81
353.15 K, x1 = 0.2	741.87	0.72
353.15 K, x1 = 0.3026	731.74	0.649
353.15 K, x1 = 0.4001	723.64	0.615
353.15 K, x1 = 0.5022	716.49	0.585
353.15 K, x1 = 0.5976	710.78	0.56
353.15 K, x1 = 0.6984	705.61	0.545
353.15 K, x1 = 0.801	701.17	0.531
353.15 K, x1 = 0.8822	698.22	0.528
353.15 K, x1 = 1	695.72	0.522
358.15 K, x1 = 0.0999	749.51	0.744
358.15 K, x1 = 0.2	737.58	0.663
358.15 K, x1 = 0.3026	727.46	0.602
358.15 K, x1 = 0.4001	719.38	0.577
358.15 K, x1 = 0.5022	712.26	0.551
358.15 K, x1 = 0.5976	706.59	0.528
358.15 K, x1 = 0.6984	701.47	0.517
358.15 K, x1 = 0.801	697.1	0.504
358.15 K, x1 = 0.8822	694.22	0.502
358.15 K, x1 = 1	691.96	0.497
363.15 K, x1 = 0.0999	745.17	0.68
363.15 K, x1 = 0.2	733.23	0.614
363.15 K, x1 = 0.3026	723.13	0.56
363.15 K, x1 = 0.4001	715.08	0.542
363.15 K, x1 = 0.5022	708	0.519
363.15 K, x1 = 0.5976	702.37	0.5
363.15 K, x1 = 0.6984	697.3	0.49
363.15 K, x1 = 0.801	692.99	0.48
363.15 K, x1 = 0.8822	690.22	0.48
363.15 K, x1 = 1	688.18	0.475
